Assay results as given in patent US10669272B2, “Substituted naphthyridinone compounds useful as T cell activators” (BRISTOL-MYERS SQUIBB COMPANY, priority 2018, dated 2020).
Read-outs that look alike come from different tables or passages of the source.

Tests used:
Human venous whole blood = experiment: Human whole blood IFN-γ assay; format: cell-based; settings: human whole blood, read-out: INFg Whole Blood Normalized Agonist EC50;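 also: blood from healthy donors exposed to compound for 1 h before stimulation with anti-CD3 and anti-CD28 at 1 µg/mL each, IFN-γ quantified in supernatant by AlphaLISA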
Protocol: Human Whole Blood IFN-γ Assay
Human venous whole blood (22.5 μL per well), obtained from healthy donors, was pre-treated with compounds for one hour at 37° C. in a humidified 95% air/5% CO2 incubator. The blood was stimulated with 2.5 μL anti-human CD3 and anti-CD28 mAb at a final concentration of 1 μg/mL each for 24 hours at 37° C. IFN-γ in the supernatants was measured using AlphLISA kit (Cat # AL217).

human DGKα = target: T1, human DGKα (Homo sapiens, UniProt P23743); experiment: DGKα LIPGLO assay (extruded liposome substrate), in vitro DGK inhibition; format: biochemical; settings: read-out: DGKa LIPGLO IC50
T1 construct: TVMV protease cleavage site (C); Hexa-His (C); made in house; host or cells: Sf9 insect cells (baculovirus, Bac-to-Bac)

human DGKζ = target: T2, human DGKζ (Homo sapiens, UniProt Q13574); experiment: DGKζ LIPGLO assay (extruded liposome substrate), in vitro DGK inhibition; format: biochemical; settings: read-out: DGKz LIPGLO IC50
T2 construct: TVMV protease cleavage site (C); Hexa-His (C); made in house; host or cells: Sf9 insect cells (baculovirus, Bac-to-Bac)

[1] = Homo sapiens, 24 h, normalized to 3 μM reference compound with anti-CD3 plus anti-CD28 as 100% activation
[2] = normalized to 3 μM reference compound with anti-CD3 plus anti-CD28 as 100% activation
[3] = anti-CD3 plus anti-CD28, 24 hours, 3 μM reference compound = 100% activation
[4] = Homo sapiens, 24 h, anti-CD3 plus anti-CD28, 24 hours, 3 μM reference compound = 100% activation

T1 sequence (P23743 with tags, fused parts or gaps): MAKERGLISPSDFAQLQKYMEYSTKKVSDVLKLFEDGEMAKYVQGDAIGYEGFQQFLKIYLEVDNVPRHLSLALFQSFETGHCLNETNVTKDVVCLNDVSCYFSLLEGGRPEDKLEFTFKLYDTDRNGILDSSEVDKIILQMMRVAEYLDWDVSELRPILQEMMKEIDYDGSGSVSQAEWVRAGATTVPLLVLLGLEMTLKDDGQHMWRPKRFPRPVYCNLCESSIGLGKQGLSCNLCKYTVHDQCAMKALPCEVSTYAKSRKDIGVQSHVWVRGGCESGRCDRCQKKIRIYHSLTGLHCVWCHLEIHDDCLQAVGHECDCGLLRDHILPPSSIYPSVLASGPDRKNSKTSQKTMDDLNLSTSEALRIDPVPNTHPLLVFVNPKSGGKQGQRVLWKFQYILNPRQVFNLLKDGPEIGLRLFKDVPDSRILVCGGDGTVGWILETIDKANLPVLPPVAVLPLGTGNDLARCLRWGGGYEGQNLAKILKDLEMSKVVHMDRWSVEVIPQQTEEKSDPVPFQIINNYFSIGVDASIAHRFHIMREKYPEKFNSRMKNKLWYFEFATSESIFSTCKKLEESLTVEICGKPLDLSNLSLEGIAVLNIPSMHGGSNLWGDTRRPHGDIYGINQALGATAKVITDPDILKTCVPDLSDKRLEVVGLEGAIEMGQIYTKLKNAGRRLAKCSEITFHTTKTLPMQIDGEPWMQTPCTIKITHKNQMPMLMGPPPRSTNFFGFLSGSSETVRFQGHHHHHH
T2 sequence (Q13574 with tags, fused parts or gaps isoform Q13574-4): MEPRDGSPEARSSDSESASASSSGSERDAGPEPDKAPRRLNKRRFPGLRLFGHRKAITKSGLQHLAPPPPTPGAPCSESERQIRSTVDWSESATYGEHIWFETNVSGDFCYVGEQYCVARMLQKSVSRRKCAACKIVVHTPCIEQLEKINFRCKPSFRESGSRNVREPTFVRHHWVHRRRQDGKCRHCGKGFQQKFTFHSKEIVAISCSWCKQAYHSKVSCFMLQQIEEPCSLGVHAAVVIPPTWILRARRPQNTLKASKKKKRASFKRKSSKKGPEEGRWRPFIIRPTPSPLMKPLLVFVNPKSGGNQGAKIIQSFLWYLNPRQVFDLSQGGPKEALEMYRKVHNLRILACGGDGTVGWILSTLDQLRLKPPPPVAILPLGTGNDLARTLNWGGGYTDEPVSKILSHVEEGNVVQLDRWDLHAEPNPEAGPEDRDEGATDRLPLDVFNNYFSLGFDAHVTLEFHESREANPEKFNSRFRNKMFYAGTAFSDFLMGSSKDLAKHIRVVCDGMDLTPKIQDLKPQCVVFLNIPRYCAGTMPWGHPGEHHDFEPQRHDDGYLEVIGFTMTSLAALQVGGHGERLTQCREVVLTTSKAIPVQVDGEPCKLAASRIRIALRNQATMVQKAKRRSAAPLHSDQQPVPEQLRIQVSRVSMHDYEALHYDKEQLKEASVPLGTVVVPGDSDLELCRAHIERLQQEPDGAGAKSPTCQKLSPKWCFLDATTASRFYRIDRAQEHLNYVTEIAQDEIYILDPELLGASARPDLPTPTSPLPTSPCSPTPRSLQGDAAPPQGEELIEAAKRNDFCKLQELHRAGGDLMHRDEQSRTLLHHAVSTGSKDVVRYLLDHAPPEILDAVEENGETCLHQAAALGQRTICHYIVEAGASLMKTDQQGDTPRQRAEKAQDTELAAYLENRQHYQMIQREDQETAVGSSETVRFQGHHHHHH

SMILES | EC50 (Human venous whole blood; [1]) [µM] | IC50 (human DGKα; liposome (LIPGLO) assay) [µM] | IC50 (human DGKζ; liposome (LIPGLO) assay) [µM] | EC50 (Human venous whole blood; [2]) [µM] | EC50 (Human venous whole blood; [3]) [µM] | IC50 (human DGKα; DGKα liposome (LIPGLO) assay) [µM] | IC50 (human DGKζ; DGKζ liposome (LIPGLO) assay) [µM] | EC50 (Human venous whole blood; [4]) [µM]
COC[C@@H]1CN(c2cc(=O)n(C)c3ccc(C#N)nc23)[C@@H](C)CN1Cc1cc(F)c(F)c(F)c1 [Example 1161] | 15 | 18 | 0.33 |  |  |  |  | 
CC[C@@H]1CN(c2cc(=O)n(C)c3ccc(C#N)nc23)[C@@H](CC)CN1Cc1ccc(OC(F)(F)F)cc1F [Example 1370] | 0.24 | 0.023 | 0.14 |  |  |  |  | 
CC(C)c1ccc(C(C)N2C[C@H](C)N(c3cc(=O)n(C)c4ccc(C#N)nc34)C[C@H]2C)cc1 (single isomer, unassigned) [Example 1233] |  | 0.29 | 0.1 | 0.38 |  |  |  | 
CC[C@H]1CN(C(c2ccc(F)cc2)c2ccc(C#N)cc2)[C@H](CC)CN1c1cc(=O)n(C)c2ccc(C#N)nc12 (stereo partly drawn) [Example 1035] | 0.29 | 0.37 | 1.1 |  |  |  |  | 
CC(c1ccc(F)cc1F)N1CCN(c2c(C#N)c(=O)n(C)c3ccc(C#N)nc23)C[C@H]1C (single isomer, unassigned) [Example 969] |  |  |  |  | 1.3 | 0.76 | 1.2 | 
CC(c1ccc(C2CC2)cc1F)N1C[C@H](C)N(c2cc(=O)n(C)c3ccc(C#N)nc23)C[C@H]1C (single isomer, unassigned) [Example 1200] | 0.23 | 0.25 | 0.053 |  |  |  |  | 
CC(c1ccc(C(F)(F)F)cc1F)N1C[C@H](C)N(c2cc(=O)n(C)c3ccc(C#N)nc23)C[C@H]1C (stereo partly drawn) [Example 431, 8-((2S,5R)-4-(1-(2-fluoro-4-(trifluoromethyl)phenyl)ethyl)-2,5-dimethylpiperazin-1-yl)-5-methyl-6-oxo-5,6-dihydro-1,5-naphthyridine-2-carbonitrile] | 1.6 | 7.3 | 1.1 |  |  |  |  | 
CC[C@H]1CN(C(C)c2ccc(C(F)(F)F)cc2F)[C@H](CC)CN1c1cc(=O)n(C)c2ccc(C#N)nc12 (single isomer, unassigned) [Example 1365] |  | 0.48 | 0.48 | 2.2 |  |  |  | 
C[C@@H]1CN(c2cc(=O)n(C)c3ccc(C#N)nc23)[C@@H](C)CN1C(c1ccc(F)cc1)c1cnn2ccccc12 (single isomer, unassigned) [Example 699] |  | 47 | 2.1 | 0.98 |  |  |  | 
Cc1cccc(C(C)N2CCN(c3c(C#N)c(=O)n(C)c4ccc(C#N)nc34)C[C@H]2C)n1 (stereo partly drawn) [Example 964] |  |  |  |  |  | 1.9 | 32 | 13
C[C@@H]1CN(c2cc(=O)n(C)c3ccc(C#N)nc23)[C@@H](C)CN1C(c1ccc(F)cc1)c1ccns1 (stereo partly drawn) [Example 720] |  | 1.1 | 0.94 | 1.9 |  |  |  | 
CC[C@H]1CN(C(C)c2ccc(OC(F)F)cc2)[C@H](CC)CN1c1cc(=O)n(C)c2ccc(C#N)nc12 (single isomer, unassigned) [Example 1373] |  | 0.0095 | 0.032 | 0.095 |  |  |  | 
CC(c1ccc(OC(F)(F)F)cc1)N1C[C@H](C)N(c2cc(=O)n(C)c3ccc(C#N)nc23)C[C@H]1CN1CCOCC1 (single isomer, unassigned) [Example 1416] |  | 48 | 52 | 20 |  |  |  | 
C[C@@H]1CN(c2cc(=O)n(C)c3ccc(C#N)nc23)[C@@H](C)CN1C(c1ccc(F)cc1)c1ccc(C(F)(F)F)cn1 (single isomer, unassigned) [Example 681] |  | 0.1 | 0.35 | 0.27 |  |  |  | 
CC[C@H]1CN(C(c2ccc(F)cc2)c2ccc(Cl)cc2)[C@H](C)CN1c1cc(=O)n(C)c2ccc(C#N)nc12 (stereo partly drawn) [Example 1127] | 0.52 | 0.68 | 2.4 |  |  |  |  | 
CC[C@H]1CN(C(c2cccc(F)c2)c2ccc(OC)cn2)[C@H](CC)CN1c1cc(=O)n(C)c2ccc(C#N)nc12 (stereo partly drawn) [Example 1048] | 0.19 | 0.083 | 0.15 |  |  |  |  | 
C[C@@H]1CN(c2cc(=O)n(C)c3ccc(C#N)nc23)[C@@H](C)CN1Cc1ccc(C2(C#N)CC2)cc1 [Example 567] | 20 | 2.8 | 18 |  |  |  |  | 
CC[C@@H]1CN(c2cc(=O)n(C)c3ccc(C#N)nc23)[C@@H](C)CN1C(C)c1ccc(F)cc1 (single isomer, unassigned) [Example 1083] |  | 0.037 | 0.079 | 0.075 |  |  |  | 
COC[C@H]1CN(C(c2ccc(F)cc2)c2ccc(F)cc2)[C@H](C)CN1c1cc(=O)n(C)c2ccc(C#N)nc12 [Example 1421, 8-((2R,5R)-4-(bis(4-fluorophenyl)methyl)-2-(methoxymethyl)-5-methylpiperazin-1-yl)-5-methyl-6-oxo-5,6-dihydro-1,5-naphthyridine-2-carbonitrile] | 1.5 | 2.1 | 0.47 |  |  |  |  | 

SMILES | EC50 (Human venous whole blood; [1]) [µM] | IC50 (human DGKα; liposome (LIPGLO) assay) [µM] | IC50 (human DGKζ; liposome (LIPGLO) assay) [µM] | EC50 (Human venous whole blood; [2]) [µM] | EC50 (Human venous whole blood; [3]) [µM] | IC50 (human DGKα; DGKα liposome (LIPGLO) assay) [µM] | IC50 (human DGKζ; DGKζ liposome (LIPGLO) assay) [µM] | EC50 (Human venous whole blood; [4]) [µM]
C[C@@H]1CN(c2c(C#N)c(=O)n(C)c3ccc(C#N)nc23)CCN1C(c1ccc(F)cc1)c1ccc(C(F)(F)F)cn1 (single isomer, unassigned) [Example 897] |  |  |  |  | 13 | 0.25 | 5.1 | 
CC(c1ccc(OC(F)(F)F)cc1)N1C[C@H](C)N(c2cc(=O)n(C)c3ccc(C#N)nc23)C[C@H]1CC#N (single isomer, unassigned) [Example 1411] | 2.2 | 0.2 | 1.2 |  |  |  |  | 
CCc1ccc(C(c2cccc(Cl)c2)N2C[C@H](C)N(c3cc(=O)n(C)c4ccc(C#N)nc34)C[C@H]2C)nc1 (single isomer, unassigned) [Example 355] | 0.34 | 0.89 | 0.74 |  |  |  |  | 
C[C@@H]1CN(c2cc(=O)n(C)c3ccc(C#N)nc23)[C@@H](C)CN1C(c1ccc(F)cc1)c1c(F)cc(F)cc1F (single isomer, unassigned) [Example 693] |  | 2.2 | 0.57 | 0.29 |  |  |  | 
CC[C@@H]1CN(c2cc(=O)n(C)c3ccc(C#N)nc23)[C@@H](C)CN1Cc1ccc(F)cc1F [Example 1077] | 0.14 | 0.46 | 0.32 |  |  |  |  | 
COc1cc(F)ccc1C(C)N1C[C@H](C)N(c2cc(=O)n(C)c3ccc(C#N)nc23)C[C@H]1C (single isomer, unassigned) [Example 1236] |  | 11 | 0.043 | 1.3 |  |  |  | 
C[C@@H]1CN(c2cc(=O)n(C)c3ccc(C#N)nc23)[C@@H](C)CN1C(c1ccc(F)cc1)c1cnn(C)c1 (single isomer, unassigned) [Example 702] |  | 1.3 | 2.9 | 4.7 |  |  |  | 
CC[C@@H]1CN(c2cc(=O)n(C)c3ccc(C#N)nc23)[C@@H](C)CN1C(c1ccc(F)cc1)c1ccc(C(F)(F)F)cn1 (single isomer, unassigned) [Example 1107] |  | 0.065 | 0.13 | 0.077 |  |  |  | 
C[C@@H]1CN(c2c(C#N)c(=O)n(C)c3ccc(C#N)nc23)[C@@H](C)CN1C(c1ccccc1)c1cc(F)cc(F)c1 (single isomer, unassigned) [Example 814] |  |  |  |  | 5.5 | 35 | 1 | 
C[C@@H]1CN(c2cc(=O)n(C)c3ccc(C#N)nc23)[C@@H](C)CN1C(c1ccc(C#N)cc1)c1ccc(F)cn1 (single isomer, unassigned) [Example 463] |  | 0.33 | 4.6 | 3.7 |  |  |  | 
CC(c1ccccc1C(F)(F)F)N1CCN(c2c(C#N)c(=O)n(C)c3ccc(C#N)nc23)C[C@H]1C (single isomer, unassigned) [Example 968] |  |  |  |  | 20 | > 250 | > 250 | 
C[C@@H]1CN(c2c(C#N)c(=O)n(C)c3ccc(C#N)nc23)CCN1C(c1ccc(F)cc1)c1ccc(C#N)cc1 (single isomer, unassigned) [Example 920] |  |  |  |  | 1.9 | 4.9 | 13 | 
Cc1ccc(C(c2ncccc2F)N2CCN(c3c(C#N)c(=O)n(C)c4ccc(C#N)nc34)C[C@H]2C)cc1 (single isomer, unassigned) [Example 892] |  |  |  |  | 5 | 1.8 | 1.3 | 
Cc1ccc(C(c2cccc(F)c2)N2C[C@H](C)N(c3cc(=O)n(C)c4ccc(C#N)nc34)C[C@H]2CO)nc1 (stereo partly drawn) [Example 1154] | 2.4 | 8.1 | 50 |  |  |  |  | 
CC(c1cccc(C(F)(F)F)n1)N1C[C@H](C)N(c2cc(=O)n(C)c3ccc(C#N)nc23)C[C@H]1C (single isomer, unassigned) [Example 637] |  | 0.17 | 0.84 | 10 |  |  |  | 
Cc1ccc(C(c2cccc3c2OCCCO3)N2C[C@H](C)N(c3cc(=O)n(C)c4ccc(C#N)nc34)C[C@H]2C)nc1 (single isomer, unassigned) [Example 451] |  | 24 | 0.53 | 7.6 |  |  |  | 
CC(=O)N1CC(c2noc(C(c3ccc(F)cc3)N3C[C@H](C)N(c4cc(=O)n(C)c5ccc(C#N)nc45)C[C@H]3C)n2)C1 (single isomer, unassigned) [Example 1296] | 20 | 2.4 | 5 |  |  |  |  | 
CCC(c1ccc(OC(F)(F)F)cc1)N1C[C@H](CC)N(c2cc(=O)n(C)c3ccc(C#N)nc23)C[C@H]1CC (single isomer, unassigned) [Example 1060] | 2.5 | 0.34 | 0.63 |  |  |  |  | 
C[C@@H]1CN(c2c(C#N)c(=O)n(C)c3ccc(C#N)nc23)CCN1Cc1cccc(C(F)(F)F)n1 [Example 991] |  |  |  |  |  | 0.31 | 0.8 | 11
